Our source for the melting point values is patent US9062024B2, “Nitrogen-containing heterocyclic compound and salt thereof, and a fungicide for agricultural and horticultural use” (Nippon Soda Co., Ltd., priority 2009, dated 2015).

Structures are written as SMILES.

The molecule `c1ccc2c(c1)NCCN=C2c1cnc2ccccc2c1` registered a melting point of 201 to 202 °C.

Consider `CC(=O)N1CCN=C(c2cnc3ccccc3c2)c2ccccc21`, for which the melting point lay within 187 to 189 °C.

In the case of `CC1(C)CN=C(c2cnc3ccccc3c2)c2ccccc2C1` [Compound B2-3, 4,4-dimethyl-1-(3-quinolinyl)-4,5-dihydro-3H-2-benzazepine], the melting point lay in the range of 115 to 116 °C.

Molecule `CC1(C)CCN=C(c2cnc3ccccc3c2)c2ccccc21` [Compound B2-25, 5,5-dimethyl-1-(3-quinolinyl)-4,5-dihydro-3H-2-benzazepine] yielded a melting point of 121 to 123 °C.
